# Results reported in US20240294876A1, “METHODS FOR THE EXPANSION OF HUMAN GRANULOCYTE-MACROPHAGE PROGENITORS AND APPLICATIONS THEREOF” (University of Southern California, priority 2021, published 2024).
# How the values were obtained:
# [1] = tested on: mouse GMPs; assay: Ex vivo expansion of mouse bone marrow-derived cells / mouse GMPs; format: cell-based
# Text: (A) Schematic of the experimental design to identify growth factors and small molecules that can promote expansion of mouse bone marrow-derived stem cells. (B) Representative phase-contrast images of mouse bone marrow cells cultured in N2B27 supplemented with the indicated small molecule inhibitors for 7 days. (C) Representative phase-contrast images of mouse bone marrow cells cultured in N2B27 supplemented with SCF plus GDC0879 or SB590885 for 3 passages. (D) Cell growth curves. Bone marrow cells isolated from C57BL/6J mice were plated into 24-well plates at a density of 2×10^5 cells/well and cultured in B7 medium supplemented with the indicated small molecules/growth factor. Cells were counted and passaged every 3 days. Data are represented as mean±SD from three independent experiments. (E) Bone marrow cells isolated from C57BL/6J mice were cultured in B7 medium supplemented with SCF/2i. Cells were passaged every 3 days. Representative phase-contrast pictures showing SCF/2i cells at different passages. (F) Cytogenetic analysis of SCF/2i cells using the GWT banding method. Bone marrow cells isolated from a female C57BL/6J mouse were expanded in SCF/2i for 8 passages before used for cytogenetic analysis. […] (G) Sequential images of individual bone marrow cells during expansion in B7 medium supplemented with SCF/2i. SCF/2i-expanded bone marrow cells were plated into 96-well plates at a density of 50 cells/well and cultured in SCF/2i. Sequential images were taken using the Keyence BZ-X710 microscopy every 24 hours. 15.7±4.0 colonies formed per well on day 4 (n=3×96). Data are represented as mean±SD from three independent experiments.
# Mouse GMP derivation, expansion, and differentiation. Cells were cultured at 37° C. in a 5% CO2 water jacket incubator (Thermo Scientific). Bone marrow cells isolated from C57BL/6J, mTmG or CAG-Cas9-EGFP mice were plated into 6-well plates at a density of 2×10^6 cells/well and cultured in 2 mL B7 medium supplemented with 50 ng/mL SCF, 1 μM GDC-0879, and 10 μM SKL2001 (SCF/2i). After 3-4 days, cells were dissociated into single-cell suspension by pipetting up and down and replated into 6-well plates at a density of 2×10^6 cells/well and cultured in 2 mL B7 medium supplemented with SCF/2i. After 2 passages in SCF/2i, the majority of cells were GMPs. GMPs were routinely passaged every 3 days. To induce differentiation, GMPs were plated into 10 cm tissue culture dishes and cultured in RPMI-1640 medium containing 10% FBS and supplemented with either 20 ng/mL M-CSF (for macrophage differentiation) or 20 ng/mL G-CSF (for granulocyte differentiation). GMP-derived macrophages were harvested on day 7 (medium was changed once on day 4) and GMP-derived granulocytes were harvested on day 3 and used for the further experiments.
# Development of defined conditions for the long-term ex vivo expansion of hematopoietic stem/progenitor cells. To develop conditions for the long-term expansion of stem or progenitor cells of the hematopoietic system, screening was conducted to identify small molecules and growth factors/cytokines that can promote their ex vivo expansion (see FIG. 3A). Specifically, bone marrow cells isolated from adult C57BL/6 mice were plated into 96-well plates in serum-free N2B27 medium. Then a first-round small molecule screening was performed. It was reasoned that if a small molecule can block differentiation or promote expansion of stem cells, these stem cells should form colonies with a uniform cell morphology. […] Upon passaging, however, no new colonies were formed in culture with any of the 5 small molecule inhibitors. A second-round screening was conducted to identify growth factors/cytokines that could further improve the expansion of the colonies.
# More importantly, these cells could be expanded robustly at clonal density (see FIG. 3G).
# SCF/2i-expanded cells are GMPs. […]
# [2] = tested on: human GMPs; assay: Ex vivo expansion of human GMPs sorted from cord blood; format: cell-based; conditions: added to SCF/GDC-0879
# Text: (A) Growth curves of human GMPs. Human GMPs were FACS sorted from cord blood and cultured in the designated conditions. Cells were passaged every 3 days and replated into 12-well plates at a density of 1×10^5 cells/well. Data are represented as mean±SD from three independent experiments. (B) Structure of TN-2-30. (C) Representative phase-contrast images of human GMPs cultured in modified SCF/2i. P, passage number. (D) Sorted human GMPs were expanded in modified SCF/2i and induced to differentiate towards granulocytes by treatment with 30 ng/ml human G-CSF for 10 days. Differentiated cells were analyzed by Giemsa staining (upper panel) and flow cytometry (lower panel). Flow cytometry data are represented as mean±SD from three independent experiments. (E) Relative MPO activities of human GMPs and human GMP-derived granulocytes stimulated with or without PMA for 2 hours. Differentiated cells generated in (D) were plated into 96-well plates at a density of 2×10^4 cells/well and stimulated with or without PMA for 2 hours, after which MPO activities in the supernatants were measured. Data are represented as mean±SD from three independent experiments. […] (H) Differentiated cells generated in (D) and (F) were plated into 96-well plates at a density of 2×10^4 cells/well and stimulated with or without 500 ng/ml LPS for 6 hours, after which cytokine secretion in the supernatants was measured by ELISA. […]
compound,measurement,setting,value
O=C(NCCCn1ccnc1)c1cc(-c2ccco2)on1 [SKL2001],long-term expansion of a uniform cell population,[1]; combined with SCF and GDC-0879,allowed for the long-term expansion
same,interaction with GDC-0879 in promoting expansion of the uniform round-shaped cells,"[1]; second screening, with GDC-0879",acted synergistically
same,requirement for expansion of β-catenin knockout mouse GMPs,[1]; β-catenin knockout mouse GMPs,still required the addition of SKL2001
same,effect of addition on expansion of human GMPs,[2],only marginally improved
